Data set [1] in a line: Pilot feeding study, food supplemented with esters of β-hydroxybutyrate and butanediol. The conditions noted are these: 10% w/w in chow. Type of data set: in vivo, C57BL/6 male mice. An excerpt: Different esters of β-hydroxybutyrate and butanediol were synthesized as described above and purified for testing in mice. The esters of β-hydroxybutyrate and butanediol that were supplemented into the diet of the mice in this study were as follows: 1) C8 diesters of butanediol (C8x2-BD); 2) C8 monoesters of β-hydroxybutyrate (C8-BHB); 3) C6 diesters of β-hydroxybutyrate (C6x2-BHB); 4) C6 monoesters of β-hydroxybutyrate (C6-BHB); and 5) C6 diesters of butanediol (C6x2-BD). Food compositions supplemented with 1,3-butanediol were also tested. Compounds were mixed at 10% w/w in ground normal chow (20% calories from protein) to match standard vivarium feed. The food was provided in a glass jar inside the animal cage. n=2 mice/condition, 18 mice total. All mice were 12 month-old C57BL/6 males. Mice were placed in individual cages to record food intake more precisely. Food was switched back to normal chow at 72 hrs (ground and in a glass jar).

Data set [2] is described as follows: Plasma BHB levels after intraperitoneal injection of C6 and C8 esters. The class given is in vivo, wild-type C57BL/6 male mice. The conditions noted are these: for blood BHB levels: intraperitoneal injection, 50 uL and 100 uL (approx. 1-3 g/kg), blood up to 6 hours after injection. The method, then:
C6 and C8 esters of butanediol and C6 and C8 esters of β-hydroxybutyrate were synthesized as described above and purified for testing in wild-type C57BL/6Ncrl male mice obtained from Charles River Laboratories. Mice were 8 months old at the time of the experiment. The biological function of C6 and C8 esters of butanediol and β-hydroxybutyrate was tested by intraperitoneal injection at two doses each, 50 uL and 100 uL. Injection was performed approximately 9 am (mice are maintained on 7a-7p light-dark cycle) and mice had access to food and water at all times. The molar quantity injected varied from 0.13-0.41 millimoles depending on the compound and dose. The subject mice weighed approximately 30 grams, so the quantity of compound injected ranged approximately from 1 g/kg to 3 g/kg. For comparison, these amounts could theoretically supply about 1/20 of a mouse's daily caloric needs—equivalent in humans to around 100 calories. Blood was drawn by distal tail nick just prior to injection (baseline) and at 30 min, 1 hour, 2 hours, 4 hours, and 6 hours after injection. Approximately 40 uL of blood was collected into lithium-heparin microvettes (Sarstedt CB-300LH) and subsequently centrifuged 15 min at 1500×G at 4° C. to separate plasma. Plasma BHB levels were determined by a colorimetric enzymatic assay (Stanbio Laboratory 2440-058).

Data set [3] is described as follows: Plasma BHB after intraperitoneal injection in APPJ20 mice. The class given is in vivo. The conditions noted are these: approximately 70-80 minutes after i.p. injection; from a median of approximately 200 μM. The method, then:
(§1) EEGs were recorded from APPJ20 mice before and after intraperitoneal injection of C6-BHB, or an equivalent volume of saline. Following completion of the first 50 min recording, the injection was performed. Mice were then allowed to recover for 20 minutes in their home cage, followed by the second 50 min EEG recording. Blood was drawn immediately following completion of the second EEG session in order to measure plasma BHB levels (as described in Example 4). The lower of the two previously tested doses from Example 4 was injected, 50 μL per 30 g body weight, which is approximately 1.5 g/kg and approximately 0.2 millimoles.
(§2) During the EEG recordings, mice were freely moving in a transparent cylinder approximately the size of a home cage. Methodology for recording and analysis of EEGs and video tracking for movement was described in Example 5. Methodology for blood draws and plasma BHB measurement was described in Example 4.

The test system of a further data set is APPJ20 mice. Nature of the data set: EEG epileptiform spikes before and after intraperitoneal injection of C6-BHB. The class given is in vivo. The method, then:
C6 and C8 esters of butanediol and C6 and C8 esters of β-hydroxybutyrate were synthesized as described above. The C6 ester of β-hydroxybutyrate was tested for efficacy in suppressing spikes in APPJ20 mice by intraperitoneal injection into 1-2 year-old APPJ20 mice including both male and female mice. The APPJ20 mice were described in Example 5.
as §1, §2
The study used a cross-over design where all mice were injected with both C6-BHB and normal saline on different days, with at least 48 hours between injections. Data analysis was limited to mice that completed all injections and EEG recordings.

Data set [4] is described as follows: Pilot feeding study, food supplemented with C6 monoester of β-hydroxybutyrate. The class given is in vivo, C57BL/6 male mice. As for the experimental part:
C6 monoester of β-hydroxybutyrate was synthesized as described above and purified for testing in mice. The C6 monoester of β-hydroxybutyrate was mixed into ground control food (10% calories from protein), the same control diet used in the above examples involving ketogenic and control diet. The food was placed in a glass jar inside the animal cage at the start of the nighttime feeding cycle, 19:00 h. Different concentrations of the C6 monoester of β-hydroxybutyrate (w/w) were mixed into the control diet to determine which concentration was sufficient to raise BHB levels in the mice. n=4 mice/condition (2 mice per cage). All mice were 12 month-old C57BL/6 males.

Data set [5] can be described thus: Feeding study, food supplemented with C6 diesters of β-hydroxybutyrate. Type of data set: in vivo, C57BL/6 male mice. The note with it: 10% w/w in diet, eighth night. An excerpt: Based on the results of the above Pilot studies, the C6 diesters of β-hydroxybutyrate were selected for a longer study with a greater number of mice to see if it would remain ketogenic even after food intake normalized. C6 diesters of β-hydroxybutyrate were synthesized as described above and purified for testing in mice. The C6 diesters of β-hydroxybutyrate were mixed at 10% w/w into ground standard chow diet (20% calories from protein), which was re-formed into pellets. Re-pelleted food was used to minimize any variable effects from a change in diet texture to ground.
The pelleted food was consumed by the mice after being placed in a glass jar in the animal cage. Four mice per diet were tested, with the mice individually caged. All mice were 12 month-old C57BL/6 males. Daily weight and caloric intake was monitored and blood was drawn for glucose and β-hydroxybutyrate levels on the eighth night. […] By the 7th night, the weights of the mice stabilized and 24 hour caloric intake was similar between the control diet and the mice that consumed food supplemented with C6 esters of β-hydroxybutyrate.

Structures are written as SMILES. Some results are limits rather than exact numbers.

`CCCCCCCC(=O)O[C@H](C)CC(=O)OCC` [C8-BHB]: the hypoglycaemias entry in data set [1] was “can be explained by fasting”. The “blood concentration of β-hydroxybutyrate” value in data set [1] (targeted 500 μM threshold) is given as “high BHB value”. Besides, in data set [2], the “blood BHB levels” value is reported as “increased BHB levels to that seen on a ketogenic diet (0.5-2 mM), or after an overnight fast (1-3 mM)”.
`CCCCCC(=O)O[C@H](C)CC(=O)OCC` [C6-BHB]: the “plasma BHB levels, median” value in data set [3] is reported as “approximately 600 μM”. Also, in data set [1], the hypoglycaemias entry was “likely a result of the compound”. The compound also gave an epileptiform spikes in the data set on APPJ20 mice (after i.p. 50 μL per 30 g body weight, saline 1.25 spikes/min) of 0.82 spikes/min. In addition, the “reduction of epileptiform spikes compared to saline injection” value with APPJ20 mice (i.p. 50 μL per 30 g body weight (approx. 1.5 g/kg), 50 min EEG) is reported as “approximately 35%”. Moreover, the “epileptiform spikes after injection” value in the data set with APPJ20 mice (i.p. injection, 50 min EEG) is “reduces spikes compared to both pre-injection baselines and injection of saline”. The “spike reduction compared to after saline, at the individual mouse level” value with APPJ20 mice (i.p. injection, P<0.05) is recorded as “significant reductions for most mice”. In data set [4] (2.5% or 5% by weight in food), the “BHB level in the blood” value was “slight increase in BHB level in the blood” and the “BHB level in the blood against the targeted threshold” value is listed as ≤ 500. Also, in data set [4] (10% or 20% by weight in food, probably explained by fasting), the “β-hydroxybutyrate concentration in blood” value was “greater increase in β-hydroxybutyrate concentration”. For the same compound, the side effect observed result in data set [2] (higher dose (100 uL), intraperitoneal) is on record as “mild sedation”. Besides, the “blood BHB levels” value in data set [2] was “increased BHB levels to that seen on a ketogenic diet (0.5-2 mM), or after an overnight fast (1-3 mM)”.
`CCCCCC(=O)OCC` [C6, reference compound]: in data set [1], the hypoglycaemias entry is “can be explained by fasting”.
Take `CCCCCCOC(=O)C[C@@H](C)OC(=O)CCCCC` [C6x2-BHB]: the “plasma β-hydroxybutyrate against targeted threshold” value in data set [5] was ≥ 500 µM. For the same compound, in data set [5] (normal caloric intake), the “β-hydroxybutyrate plasma concentrations versus control diet” value is “greater β-hydroxybutyrate plasma concentrations”.

The record behind these values is US10562839B2, “Medium chain fatty acid esters of β-hydroxybutyrate and butanediol and compositions and methods for using same” (The J. David Gladstone Institutes, priority 2016, dated 2020).
